# Activity calls are given as the source filed them. No cut-off for these calls is given here.
# How the values were obtained:
# [1] = Partition coefficient (logP); format: physicochemical; conditions: octanol/water
# Canis familiaris [2] = assay: Coronary vasodilatory activity as increase in coronary blood flow was determined in dogs after i.v. administration of the compound; format: functional, Canis lupus familiaris, Artery
# Canis familiaris [3] = assay: Coronary vasodilatory activity as increase in coronary flow was determined in dogs after 0.1 mg/kg i.v. administration of the compound; (SE +/- 27); format: functional, Canis lupus familiaris; conditions: route intravenous
# [4] = Lethal effect after per os administration in mouse for 7 days; format: toxicity; conditions: in vivo, po
# Canis familiaris [5] = assay: Coronary vasodilatory activity as increase in coronary flow was determined in dogs after 0.1 mg/kg i.v. administration of the compound; (SE +/- 0.1); format: functional, Canis lupus familiaris; conditions: route intravenous
# Canis familiaris [6] = assay: Coronary vasodilatory activity as increase in coronary flow was determined in dogs after 0.1 mg/kg i.v. administration of the compound; format: functional, Canis lupus familiaris; conditions: route intravenous
# Canis familiaris [7] = assay: Ability to increase coronary blood flow after intra duodenal administration at 3 mg/kg in dog; (SE +/- 23); format: functional, Canis lupus familiaris, Blood/Heart; conditions: route intraduodenal
# Cavia porcellus [8] = species on record: Cavia porcellus; assay: Calcium antagonistic activity in isolated guinea pig Tenia coli specimens; (SE +/- 0.06); format: functional; conditions: read-out: pA2 (converted)
# Canis familiaris [9] = assay: Ability to increase coronary blood flow after intra duodenal administration at 3 mg/kg in dog; (SE +/- 27); format: functional, Canis lupus familiaris; conditions: route intraduodenal
# Canis familiaris [10] = assay: Coronary vasodilatory activity as increase in coronary flow was determined in dogs after 0.1 mg/kg i.v. administration of the compound; (SE +/- 5); format: functional, Canis lupus familiaris; conditions: route intravenous
# Cavia porcellus [11] = species on record: Cavia porcellus; assay: Calcium antagonistic activity in isolated guinea pig Tenia coli specimens; (SE +/- 0.08); format: functional; conditions: read-out: pA2 (converted)
# Canis familiaris [12] = assay: Coronary vasodilatory activity as increase in coronary flow was determined in dogs after 0.1 mg/kg i.v. administration of the compound; (SE +/- 9.9); format: functional, Canis lupus familiaris; conditions: route intravenous
# Canis familiaris [13] = assay: Coronary vasodilatory activity as increase in coronary flow was determined in dogs after 0.1 mg/kg i.v. administration of the compound; (SE +/- 22.2); format: functional, Canis lupus familiaris; conditions: route intravenous
# Cavia porcellus [14] = species on record: Cavia porcellus; assay: Calcium antagonistic activity in isolated guinea pig Tenia coli specimens; (SE +/- 0.13); format: functional; conditions: read-out: pA2 (converted)
# Canis familiaris [15] = assay: Coronary vasodilatory activity as increase in coronary flow was determined in dogs after 0.1 mg/kg i.v. administration of the compound; (SE +/- 6.6); format: functional, Canis lupus familiaris; conditions: route intravenous
# Canis familiaris [16] = assay: Coronary vasodilatory activity as increase in coronary flow was determined in dogs after 0.1 mg/kg i.v. administration of the compound; (SE +/- 8.2); format: functional, Canis lupus familiaris; conditions: route intravenous
# Canis familiaris [17] = assay: Ability to increase coronary blood flow after intra duodenal administration at 3 mg/kg in dog; (SE +/- 24); format: functional, Canis lupus familiaris; conditions: route intraduodenal
# Canis familiaris [18] = assay: Coronary vasodilatory activity as increase in coronary flow was determined in dogs after 0.1 mg/kg i.v. administration of the compound; (SE +/- 9); format: functional, Canis lupus familiaris; conditions: route intravenous
# Cavia porcellus [19] = species on record: Cavia porcellus; assay: Calcium antagonistic activity in isolated guinea pig Tenia coli specimens; (SE +/- 0.10); format: functional; conditions: read-out: pA2 (converted)
# Canis familiaris [20] = assay: Coronary vasodilatory activity as increase in coronary flow was determined in dogs after 0.1 mg/kg i.v. administration of the compound; (SE +/- 12.9); format: functional, Canis lupus familiaris; conditions: route intravenous
# Canis familiaris [21] = assay: Coronary vasodilatory activity as increase in coronary flow was determined in dogs after 0.1 mg/kg i.v. administration of the compound; IA = Inactive; format: functional, organism-based; set-up: dose 0.1 mg/kg; conditions: Canis lupus familiaris; at 0.1 mg/kg
# Canis familiaris [22] = assay: Coronary vasodilatory activity as increase in coronary flow was determined in dogs after 0.1 mg/kg i.v. administration of the compound; (SE +/- 7.4); format: functional, Canis lupus familiaris; conditions: route intravenous
# Canis familiaris [23] = assay: Ability to increase coronary blood flow after intra duodenal administration at 3 mg/kg in dog; (SE +/- 38); format: functional, Canis lupus familiaris; conditions: route intraduodenal
# Canis familiaris [24] = assay: Coronary vasodilatory activity as increase in coronary flow was determined in dogs after 0.1 mg/kg i.v. administration of the compound; (SE +/- 13.1); format: functional, Canis lupus familiaris; conditions: route intravenous
# Canis familiaris [25] = assay: Ability to increase coronary blood flow after intra duodenal administration at 3 mg/kg in dog; (SE +/- 21); format: functional, Canis lupus familiaris; conditions: route intraduodenal
# Cavia porcellus [26] = species on record: Cavia porcellus; assay: Calcium antagonistic activity in isolated guinea pig Tenia coli specimens; (SE +/- 0.11); format: functional; conditions: read-out: pA2 (converted)
# Canis familiaris [27] = assay: Coronary vasodilatory activity as increase in coronary flow was determined in dogs after 0.1 mg/kg i.v. administration of the compound; (SE +/- 3.3); format: functional, Canis lupus familiaris; conditions: route intravenous
compound,measurement,setting,value
CCOC(=O)Cc1ccc(-c2nc3ccccc3s2)cc1,logP,[1],3.2
CCOP(=O)(Cc1ccc(-c2nc3ccccc3s2)cc1)N1CCSC1=O (stereo not drawn),CBF-ID75,Canis familiaris [2],0.0504 mg/kg
same,Max increase,Canis familiaris [3],155.3%
same,LD50 at 168 h,[4],> 1000 mg/kg
CCOP(=O)(Cc1ccc(-c2nc3ccccc3s2)cc1)N(CC)CC (stereo not drawn),Max increase,Canis familiaris [5],79.7%
CCOP(=O)(Cc1ccc(-c2nc3ccccc3s2)cc1)N1CCOCC1 (stereo not drawn),Max increase,Canis familiaris [6],69%
CCOP(=O)(Cc1ccc(-c2nc3ccccc3s2)cc1)N1CC=CC1 (stereo not drawn),Max increase,Canis familiaris [6],80.6%
COc1ccc([C@@H]2Sc3ccccc3N(CCN(C)C)C(=O)[C@@H]2OC(C)=O)cc1.Cl [DILTIAZEM HYDROCHLORIDE],CBF-ID75,Canis familiaris [2],0.0771 mg/kg
same,Change in blood flow,Canis familiaris [7],52%
same,Kb,Cavia porcellus [8],50.1 nM
same,LD50 at 168 h,[4],508 mg/kg
CCOP(=O)(Cc1ccc(-c2nc3ccccc3s2)cc1)OCC [FOSTEDIL],CBF-ID75,Canis familiaris [2],0.116 mg/kg
same,Change in blood flow,Canis familiaris [9],92%
same,Max increase,Canis familiaris [10],82.2%
same,Kb,Cavia porcellus [11],61.7 nM
same,LD50 at 168 h,[4],1190 mg/kg
CCOP(=O)(Cc1ccc(-c2nc3ccccc3s2)cc1)N1CCCCCCC1=O (stereo not drawn),Max increase,Canis familiaris [12],70.7%
CCOP(=O)(Cc1ccc(-c2nc3ccccc3s2)cc1)NC1CC1 (stereo not drawn),Max increase,Canis familiaris [6],41.1%
CCOP(=O)(Cc1ccc(-c2nc3ccccc3s2)cc1)N1CCOC1=O (stereo not drawn),CBF-ID75,Canis familiaris [2],0.0773 mg/kg
same,Max increase,Canis familiaris [13],141.4%
same,Kb,Cavia porcellus [14],25.7 nM
same,LD50 at 168 h,[4],671 mg/kg
CCOP(=O)(Cc1ccc(-c2nc3ccccc3s2)cc1)N1CCCCC1=S (stereo not drawn),Max increase,Canis familiaris [15],24.7%
CCNP(=O)(Cc1ccc(-c2nc3ccccc3s2)cc1)OCC (stereo not drawn),Max increase,Canis familiaris [6],31.2%
CCOP(=O)(Cc1ccc(-c2nc3ccccc3s2)cc1)N1CCCCC1 (stereo not drawn),Max increase,Canis familiaris [16],81.3%
CCOP(=O)(Cc1ccc(-c2nc3ccccc3s2)cc1)N1CCCCCC1 (stereo not drawn),Max increase,Canis familiaris [6],49.3%
CCOP(=O)(Cc1ccc(-c2nc3ccccc3s2)cc1)N1CCCC1=O (stereo not drawn),logP,[1],3
same,CBF-ID75,Canis familiaris [2],0.0414 mg/kg
same,Change in blood flow,Canis familiaris [17],104%
same,Max increase,Canis familiaris [18],124.1%
same,Kb,Cavia porcellus [19],29.5 nM
same,LD50 at 168 h,[4],2110 mg/kg
CCOP(=O)(Cc1ccc(-c2nc3ccccc3s2)cc1)N1CCN(C)CC1 (stereo not drawn),Max increase,Canis familiaris [6],49.3%
CCOP(=O)(Cc1ccc(-c2nc3ccccc3s2)cc1)N1CCN(CC)C(=O)C1=O (stereo not drawn),Max increase,Canis familiaris [20],51.8%
CCOP(=O)(Cc1ccc(-c2nc3ccccc3s2)cc1)NCc1ccccc1 (stereo not drawn),Max increase,Canis familiaris [21],inactive
CCOP(=O)(Cc1ccc(-c2nc3ccccc3s2)cc1)NCCCl (stereo not drawn),Max increase,Canis familiaris [6],31.2%
CCOP(=O)(Cc1ccc(-c2nc3ccccc3s2)cc1)OC (stereo not drawn),logP,[1],3.5
CCOP(=O)(Cc1ccc(-c2nc3ccccc3s2)cc1)N1CCSC1=S (stereo not drawn),Max increase,Canis familiaris [22],51.8%
CCOP(=O)(Cc1ccc(-c2nc3ccccc3s2)cc1)N1CCCCCC1=O (stereo not drawn),CBF-ID75,Canis familiaris [2],0.055 mg/kg
same,Change in blood flow,Canis familiaris [23],69%
same,Max increase,Canis familiaris [18],102.8%
same,Kb,Cavia porcellus [19],34.7 nM
same,LD50 at 168 h,[4],> 1000 mg/kg
CCOP(=O)(Cc1ccc(-c2nc3ccccc3s2)cc1)N1CCCC1=S (stereo not drawn),Max increase,Canis familiaris [22],64.9%
CCOP(=O)(Cc1ccc(-c2nc3ccccc3s2)cc1)NC(C)C (stereo not drawn),Max increase,Canis familiaris [6],73.2%
Cc1ccc(-c2nc3ccccc3s2)cc1,logP,[1],3.7
CCOP(=O)(Cc1ccc(-c2nc3ccccc3s2)cc1)N1CCCC1 (stereo not drawn),Max increase,Canis familiaris [24],101.1%
CCOP(=O)(Cc1ccc(-c2nc3ccccc3s2)cc1)N1CCCCC1=O (stereo not drawn),CBF-ID75,Canis familiaris [2],0.0552 mg/kg
same,Change in blood flow,Canis familiaris [25],40%
same,Max increase,Canis familiaris [22],101.9%
same,Kb,Cavia porcellus [26],35.5 nM
same,LD50 at 168 h,[4],> 1000 mg/kg
CCOP(=O)(Cc1ccc(-c2nc3ccccc3s2)cc1)N1CCN(Cc2ccc(OC)c(OC)c2OC)CC1.O=C(O)/C=C/C(=O)O (stereo not drawn),Max increase,Canis familiaris [27],103.5%

# Source: ChEMBL document CHEMBL1124876, “Organic phosphorus compounds. 5. (4-Benzothiazol-2-ylbenzyl)amidophosphonate as potent calcium antagonistic vasodilators” (J Med Chem, 1990)
